# How the values were obtained:
# Assay in all cases: Kinase panel, CaNDY 1 µM
# Format in all cases: biochemical
# Conditions in all cases: CaNDY 1 µM relative to DMSO
# [1] = biological target: T1, TBK1 (Homo sapiens, UniProt Q9UHD2)
# T1 construct: purchased Carna Biosciences
# Method in brief: (§1)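 Percent inhibition was derived from the phosphorylated fraction, P/(P + S), compared with reactions lacking compound. Phosphorylation was measured by electrophoretic mobility shift after 1 h at room temperature. Kinases were recombinant full-length human GST fusions from a baculovirus system; DMSO was 1% final.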
# [2] = biological target: T2, AKT3 (Homo sapiens, UniProt Q9Y243)
# T2 construct: purchased Carna Biosciences
# Method in brief: as §1
# [3] = biological target: T3, NEK6 (Homo sapiens, UniProt Q9HC98)
# T3 construct: purchased Carna Biosciences
# Method in brief: as §1
# [4] = biological target: T4, p38δ (Homo sapiens, UniProt O15264)
# T4 construct: purchased Carna Biosciences
# Method in brief: as §1
# [5] = biological target: T5, HIPK1 (Homo sapiens, UniProt Q86Z02)
# T5 construct: purchased Carna Biosciences
# Method in brief: as §1
# [6] = biological target: T6, YES (Homo sapiens, UniProt P07947)
# T6 construct: purchased Carna Biosciences
# Method in brief: as §1
# [7] = biological target: T7, NuaK2 (Homo sapiens, UniProt Q9H093)
# T7 construct: purchased Carna Biosciences
# Method in brief: as §1
# [8] = biological target: T8, AurC (Homo sapiens, UniProt Q9UQB9)
# T8 construct: purchased Carna Biosciences
# Method in brief: as §1
# [9] = biological target: T9, GSK3β (Homo sapiens, UniProt P49841)
# T9 construct: purchased Carna Biosciences
# Method in brief: as §1
# [10] = biological target: T10, AKT2 (Homo sapiens, UniProt P31751)
# T10 construct: purchased Carna Biosciences
# Method in brief: as §1
# [11] = biological target: T11, CDK4/CycD3 (Homo sapiens, UniProt P11802)
# T11 construct: purchased Carna Biosciences
# Method in brief: as §1
# [12] = biological target: T12, ALK(R1275Q) (Homo sapiens, UniProt Q9UM73, R1275Q)
# T12 construct: purchased Carna Biosciences
# Method in brief: as §1
# [13] = biological target: T13, ALK (Homo sapiens, UniProt Q9UM73)
# T13 construct: purchased Carna Biosciences
# Method in brief: as §1
# [14] = biological target: T14, DYRK2 (Homo sapiens, UniProt Q92630)
# T14 construct: purchased Carna Biosciences
# Method in brief: as §1
# [15] = biological target: T15, BLK (Homo sapiens, UniProt P51451)
# T15 construct: purchased Carna Biosciences
# Method in brief: as §1
# [16] = biological target: T16, LTK (Homo sapiens, UniProt P29376)
# T16 construct: purchased Carna Biosciences
# Method in brief: as §1
# [17] = biological target: T17, QIK (Homo sapiens, UniProt Q9H0K1)
# T17 construct: purchased Carna Biosciences
# Method in brief: as §1
# [18] = biological target: T18, PGK (Homo sapiens, UniProt Q13976)
# T18 construct: purchased Carna Biosciences
# Method in brief: as §1
# [19] = biological target: T19, EPHA4 (Homo sapiens, UniProt P54764)
# T19 construct: purchased Carna Biosciences
# Method in brief: as §1
# [20] = biological target: T20, MRCKβ (Homo sapiens, UniProt Q9Y5S2)
# T20 construct: purchased Carna Biosciences
# Method in brief: as §1
# [21] = biological target: T21, LCK (Homo sapiens, UniProt P06239)
# T21 construct: purchased Carna Biosciences
# Method in brief: as §1
# [22] = biological target: T22, CLK3 (Homo sapiens, UniProt P49761)
# T22 construct: purchased Carna Biosciences
# Method in brief: as §1
# [23] = biological target: T23, FGR (Homo sapiens, UniProt P09769)
# T23 construct: purchased Carna Biosciences
# Method in brief: as §1
# [24] = biological target: T24, CaMK4 (Homo sapiens, UniProt Q16566)
# T24 construct: purchased Carna Biosciences
# Method in brief: as §1
# [25] = biological target: T25, BTK (Homo sapiens, UniProt Q06187)
# T25 construct: purchased Carna Biosciences
# Method in brief: as §1
# [26] = biological target: T26, PDK1 (Homo sapiens, UniProt O15530)
# T26 construct: purchased Carna Biosciences
# Method in brief: as §1
# [27] = biological target: T27, CaMK2α (Homo sapiens, UniProt Q9UQM7)
# T27 construct: purchased Carna Biosciences
# Method in brief: as §1
# [28] = biological target: T28, JNK3 (Homo sapiens, UniProt P53779)
# T28 construct: purchased Carna Biosciences
# Method in brief: as §1
# [29] = biological target: T29, KIT(V654A) (Homo sapiens, UniProt P10721, V654A)
# T29 construct: purchased Carna Biosciences
# Method in brief: as §1
# [30] = biological target: T30, SRPK1 (Homo sapiens, UniProt Q96SB4)
# T30 construct: purchased Carna Biosciences
# Method in brief: as §1
# [31] = biological target: T31, CDK9/CycT1 (Homo sapiens, UniProt P50750)
# T31 construct: purchased Carna Biosciences
# Method in brief: as §1
# [32] = biological target: T32, HCK (Homo sapiens, UniProt P08631)
# T32 construct: purchased Carna Biosciences
# Method in brief: as §1
# [33] = biological target: T33, CDK2/CycA2 (Homo sapiens, UniProt P24941)
# T33 construct: purchased Carna Biosciences
# Method in brief: as §1
# [34] = biological target: T34, HIPK3 (Homo sapiens, UniProt Q9H422)
# T34 construct: purchased Carna Biosciences
# Method in brief: as §1
# [35] = biological target: T35, HIPK4 (Homo sapiens, UniProt Q8NE63)
# T35 construct: purchased Carna Biosciences
# Method in brief: as §1
# [36] = biological target: T36, MGC42105 (Homo sapiens, UniProt Q8IY84)
# T36 construct: purchased Carna Biosciences
# Method in brief: as §1
# T11 sequence (P11802 whole entry): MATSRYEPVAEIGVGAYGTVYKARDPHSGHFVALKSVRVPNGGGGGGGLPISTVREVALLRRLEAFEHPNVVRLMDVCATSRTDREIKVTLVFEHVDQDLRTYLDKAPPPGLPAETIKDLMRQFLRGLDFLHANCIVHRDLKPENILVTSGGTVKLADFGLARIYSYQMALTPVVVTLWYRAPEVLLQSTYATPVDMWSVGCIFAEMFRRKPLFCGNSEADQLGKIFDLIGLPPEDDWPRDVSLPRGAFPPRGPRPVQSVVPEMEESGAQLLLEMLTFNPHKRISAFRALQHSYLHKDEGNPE
# T11 sequence (P30281 whole entry partner): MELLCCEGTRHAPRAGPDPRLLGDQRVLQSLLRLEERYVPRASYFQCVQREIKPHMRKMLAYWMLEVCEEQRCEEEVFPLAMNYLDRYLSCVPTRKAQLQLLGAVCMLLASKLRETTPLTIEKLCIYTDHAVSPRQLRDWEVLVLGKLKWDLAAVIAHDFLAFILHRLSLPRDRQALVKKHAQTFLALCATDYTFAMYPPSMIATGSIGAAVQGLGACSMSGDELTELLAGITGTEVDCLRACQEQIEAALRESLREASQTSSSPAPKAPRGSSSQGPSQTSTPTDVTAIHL
# T21 sequence (P06239 whole entry): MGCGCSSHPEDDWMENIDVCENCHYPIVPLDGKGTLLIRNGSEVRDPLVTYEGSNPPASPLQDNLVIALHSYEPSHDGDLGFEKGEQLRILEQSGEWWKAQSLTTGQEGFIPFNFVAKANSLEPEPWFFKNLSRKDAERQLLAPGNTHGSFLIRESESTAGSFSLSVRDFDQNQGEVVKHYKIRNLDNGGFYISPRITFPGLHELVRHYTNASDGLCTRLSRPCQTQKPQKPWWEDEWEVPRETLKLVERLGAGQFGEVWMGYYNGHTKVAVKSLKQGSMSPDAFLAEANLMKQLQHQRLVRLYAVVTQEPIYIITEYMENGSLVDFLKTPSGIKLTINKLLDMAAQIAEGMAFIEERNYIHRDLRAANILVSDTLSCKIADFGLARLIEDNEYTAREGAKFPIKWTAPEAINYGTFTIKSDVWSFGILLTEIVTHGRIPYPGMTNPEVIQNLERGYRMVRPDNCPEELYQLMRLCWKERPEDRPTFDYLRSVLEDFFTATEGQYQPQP
# T36 sequence (Q8IY84 whole entry): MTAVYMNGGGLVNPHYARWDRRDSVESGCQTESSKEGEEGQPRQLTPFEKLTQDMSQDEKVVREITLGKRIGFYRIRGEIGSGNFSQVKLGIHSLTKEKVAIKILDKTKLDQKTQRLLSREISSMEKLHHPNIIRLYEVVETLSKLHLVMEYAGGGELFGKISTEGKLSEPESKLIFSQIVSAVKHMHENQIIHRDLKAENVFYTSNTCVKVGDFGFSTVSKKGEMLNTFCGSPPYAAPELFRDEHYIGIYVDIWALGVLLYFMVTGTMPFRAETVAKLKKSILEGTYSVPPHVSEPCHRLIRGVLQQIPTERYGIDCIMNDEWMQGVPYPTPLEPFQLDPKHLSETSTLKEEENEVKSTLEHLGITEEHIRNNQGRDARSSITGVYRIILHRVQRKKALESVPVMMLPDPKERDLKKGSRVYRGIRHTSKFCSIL
# T19 sequence (P54764 20-986): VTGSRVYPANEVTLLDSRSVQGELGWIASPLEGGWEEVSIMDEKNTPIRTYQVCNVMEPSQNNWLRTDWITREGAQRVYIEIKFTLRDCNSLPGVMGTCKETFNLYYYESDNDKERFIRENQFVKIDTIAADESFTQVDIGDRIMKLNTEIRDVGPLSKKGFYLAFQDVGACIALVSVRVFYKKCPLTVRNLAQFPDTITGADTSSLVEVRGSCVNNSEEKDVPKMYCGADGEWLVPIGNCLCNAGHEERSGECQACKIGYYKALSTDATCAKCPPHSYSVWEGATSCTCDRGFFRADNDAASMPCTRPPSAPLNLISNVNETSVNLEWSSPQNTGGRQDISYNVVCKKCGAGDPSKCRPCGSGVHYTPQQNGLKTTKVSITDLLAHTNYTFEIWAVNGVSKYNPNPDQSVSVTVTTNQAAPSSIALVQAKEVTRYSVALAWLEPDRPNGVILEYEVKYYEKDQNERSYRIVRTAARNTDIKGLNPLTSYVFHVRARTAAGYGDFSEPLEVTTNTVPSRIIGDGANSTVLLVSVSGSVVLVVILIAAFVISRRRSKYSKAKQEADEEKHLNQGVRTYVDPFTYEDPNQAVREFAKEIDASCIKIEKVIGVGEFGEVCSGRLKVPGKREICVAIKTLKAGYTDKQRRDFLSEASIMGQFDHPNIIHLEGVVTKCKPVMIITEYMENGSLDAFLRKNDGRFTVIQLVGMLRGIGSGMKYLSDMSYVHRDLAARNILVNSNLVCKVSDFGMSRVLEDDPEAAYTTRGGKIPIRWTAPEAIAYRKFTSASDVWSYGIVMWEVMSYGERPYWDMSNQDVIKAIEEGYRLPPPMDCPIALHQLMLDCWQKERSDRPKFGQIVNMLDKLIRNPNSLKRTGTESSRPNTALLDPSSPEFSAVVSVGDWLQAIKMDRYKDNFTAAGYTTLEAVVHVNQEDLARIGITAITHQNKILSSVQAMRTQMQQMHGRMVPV
# T17 sequence (Q9H0K1 whole entry): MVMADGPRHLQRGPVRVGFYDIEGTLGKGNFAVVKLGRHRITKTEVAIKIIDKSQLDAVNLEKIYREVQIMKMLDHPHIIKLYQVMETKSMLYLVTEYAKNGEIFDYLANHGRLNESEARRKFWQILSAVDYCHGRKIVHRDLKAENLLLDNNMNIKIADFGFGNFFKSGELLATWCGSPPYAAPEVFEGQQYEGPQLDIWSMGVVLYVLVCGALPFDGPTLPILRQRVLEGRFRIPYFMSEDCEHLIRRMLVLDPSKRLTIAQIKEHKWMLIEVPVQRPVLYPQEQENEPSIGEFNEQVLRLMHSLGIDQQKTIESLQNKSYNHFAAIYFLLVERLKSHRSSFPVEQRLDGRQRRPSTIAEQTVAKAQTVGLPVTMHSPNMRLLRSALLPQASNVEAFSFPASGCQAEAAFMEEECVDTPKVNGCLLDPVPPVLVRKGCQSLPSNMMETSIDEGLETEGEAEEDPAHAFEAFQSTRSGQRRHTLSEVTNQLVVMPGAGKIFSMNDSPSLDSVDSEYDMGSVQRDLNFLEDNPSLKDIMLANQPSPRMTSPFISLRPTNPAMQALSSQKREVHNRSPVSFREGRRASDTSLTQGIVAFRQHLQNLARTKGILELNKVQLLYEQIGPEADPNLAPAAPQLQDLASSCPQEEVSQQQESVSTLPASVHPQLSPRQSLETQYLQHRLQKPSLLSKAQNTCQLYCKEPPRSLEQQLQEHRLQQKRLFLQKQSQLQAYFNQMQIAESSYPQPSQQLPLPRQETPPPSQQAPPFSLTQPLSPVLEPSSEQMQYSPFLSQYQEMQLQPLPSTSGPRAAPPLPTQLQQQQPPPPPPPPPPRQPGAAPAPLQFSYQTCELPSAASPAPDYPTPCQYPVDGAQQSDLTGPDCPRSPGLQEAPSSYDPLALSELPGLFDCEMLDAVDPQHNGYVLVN
# T4 sequence (O15264 whole entry): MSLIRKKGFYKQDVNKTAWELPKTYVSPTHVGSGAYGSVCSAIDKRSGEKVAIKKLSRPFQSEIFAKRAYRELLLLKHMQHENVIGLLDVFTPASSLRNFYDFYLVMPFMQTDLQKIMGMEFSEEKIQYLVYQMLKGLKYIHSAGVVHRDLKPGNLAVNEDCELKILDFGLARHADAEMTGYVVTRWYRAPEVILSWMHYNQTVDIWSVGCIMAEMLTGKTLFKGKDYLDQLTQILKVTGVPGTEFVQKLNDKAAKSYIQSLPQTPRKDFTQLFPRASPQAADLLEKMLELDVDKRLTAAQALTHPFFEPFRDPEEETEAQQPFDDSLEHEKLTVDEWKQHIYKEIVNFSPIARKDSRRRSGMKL
# T24 sequence (Q16566 whole entry): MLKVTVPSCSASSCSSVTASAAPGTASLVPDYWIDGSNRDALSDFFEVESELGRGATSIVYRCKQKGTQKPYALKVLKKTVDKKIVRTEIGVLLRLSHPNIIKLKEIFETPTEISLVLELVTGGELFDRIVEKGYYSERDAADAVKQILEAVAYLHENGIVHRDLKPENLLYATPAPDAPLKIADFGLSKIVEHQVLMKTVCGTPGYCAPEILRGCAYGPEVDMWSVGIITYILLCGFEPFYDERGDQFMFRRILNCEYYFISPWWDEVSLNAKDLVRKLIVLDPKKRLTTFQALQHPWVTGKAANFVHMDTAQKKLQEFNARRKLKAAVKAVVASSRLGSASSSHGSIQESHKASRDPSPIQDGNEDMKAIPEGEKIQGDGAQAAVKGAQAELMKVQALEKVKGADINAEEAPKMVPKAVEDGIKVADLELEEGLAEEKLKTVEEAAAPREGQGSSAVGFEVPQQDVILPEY
# T3 sequence (Q9HC98 whole entry): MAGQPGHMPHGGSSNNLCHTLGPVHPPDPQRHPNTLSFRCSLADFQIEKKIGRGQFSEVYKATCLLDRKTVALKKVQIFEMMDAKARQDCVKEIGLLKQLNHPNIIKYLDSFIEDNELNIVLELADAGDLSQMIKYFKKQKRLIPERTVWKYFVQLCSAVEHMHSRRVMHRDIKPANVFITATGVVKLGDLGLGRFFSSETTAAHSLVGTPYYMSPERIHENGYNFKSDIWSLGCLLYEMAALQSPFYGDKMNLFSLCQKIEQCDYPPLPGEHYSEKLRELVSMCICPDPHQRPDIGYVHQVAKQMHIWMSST
# T8 sequence (Q9UQB9 whole entry): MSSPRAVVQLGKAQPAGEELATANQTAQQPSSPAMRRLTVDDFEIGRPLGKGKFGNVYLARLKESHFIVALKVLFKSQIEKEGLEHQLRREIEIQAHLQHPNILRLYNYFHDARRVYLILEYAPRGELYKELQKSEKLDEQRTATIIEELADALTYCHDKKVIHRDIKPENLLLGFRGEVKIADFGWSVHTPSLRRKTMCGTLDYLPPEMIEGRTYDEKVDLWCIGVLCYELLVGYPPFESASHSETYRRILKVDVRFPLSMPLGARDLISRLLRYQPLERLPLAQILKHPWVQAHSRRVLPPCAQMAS
compound,measurement,setting,value
"[H]/N=C1/NC(=O)C(=Cc2ccc3c(c2)CCO3)S1 [CaNDY, (Z)-5-[(2,3-dihydrobenzofuran-5-yl)methylene]-2-iminothiazolidin-4-one]",remaining activity at 1 µM,[1],100%
same,remaining activity at 1 µM,[2],104%
same,remaining activity at 1 µM,[3],96.1%
same,remaining activity at 1 µM,[4],74.8%
same,remaining activity at 1 µM,[5],30.9%
same,remaining activity at 1 µM,[6],101%
same,%Activity,[7],98.1%
same,remaining activity at 1 µM,[8],97%
same,remaining activity at 1 µM,[9],74.1%
same,remaining activity at 1 µM,[10],105%
same,remaining activity at 1 µM,[11],86.4%
same,remaining activity at 1 µM,[12],98.5%
same,remaining activity at 1 µM,[13],98.7%
same,remaining activity at 1 µM,[14],20.3%
same,remaining activity at 1 µM,[15],101%
same,remaining activity at 1 µM,[16],96.9%
same,remaining activity at 1 µM,[17],99.5%
same,remaining activity at 1 µM,[18],92.8%
same,remaining activity at 1 µM,[19],102%
same,remaining activity at 1 µM,[20],82.5%
same,remaining activity at 1 µM,[21],99%
same,%Activity,[22],16.5%
same,remaining activity at 1 µM,[23],102%
same,remaining activity at 1 µM,[24],103%
same,%Activity,[25],85.7%
same,remaining activity at 1 µM,[26],107%
same,remaining activity at 1 µM,[27],104%
same,%Activity,[28],100.8%
same,remaining activity at 1 µM,[29],98.5%
same,remaining activity at 1 µM,[30],101%
same,remaining activity at 1 µM,[31],19.4%
same,remaining activity at 1 µM,[32],95.5%
same,%Activity,[33],86.3%
same,remaining activity at 1 µM,[34],22.4%
same,remaining activity at 1 µM,[35],78.2%
same,remaining activity at 1 µM,[36],102%

# Source: publication PMC4522657, “Identification of a DYRK1A Inhibitor that Induces Degradation of the Target Kinase using Co-chaperone CDC37 fused with Luciferase nanoKAZ” (Scientific Reports, 2015)
